US7951777B2, “Compositions and methods for treatment of cardiovascular disease” (Vectus Biosystems Limited, priority 2004, dated 2011)
“Also recorded” adds a separate entry of the source.

What was measured:
SHR and WKY rats = assay: Preliminary four-week VIP infusion in rat models of myocardial fibrosis; assay type: in vivo; settings: VIP 7.2 nmol/kg/day via Alzet mini pump for four weeks, compared to control groups
Excerpt: Further preliminary experiments have been conducted on a number of animal models, which encompass a range of fibrous tissue replacement, varying from mild to moderate to severe. The experiments on the animal models encompassed a variety of aetiologies (alone and in combination) and a range of levels of induced fibrosis. For these experiments two types of rats were used, spontaneously hypertensive rats (SHR) and normotensive control Wistar-Kyoto rats (WKY). The WKY rats were given: 1) low salt diet, 2) high salt diet, or 3) L-NAME (ω-monomethyl-nitro-L-arginine; 10 mg/kg/day) plus high salt diet. The SHR rats were given low or high salt diets. The effect of VIP infusion in diabetic heart disease was also studied in the WKY rate with streptozotocin induced diabetes.
In each treatment group, rats were randomised to VIP (SEQ ID No. 1) or vehicle infusion (n=24 in each group) for four weeks. VIP was administered via Alzet mini pump at a rate of 7.2 nmol/kg/day.
After four weeks, the rats were anaesthetised and the hearts were harvested. Myocardial VIP concentrations and myocardial fibrosis were quantitated.

WKY rats = assay: Acute VIP infusion, uptake of VIP by the myocardium; assay type: in vivo, rat
Experimental: In preliminary studies a series of acute infusion experiments have been conducted in animal models.
Fourteen week old WKY rats were randomised to low salt diet (0.008%), intermediate salt diet (2.2%), high salt diet (4.4%) or high salt diet plus L-NAME (10 mg/kg/day) in the drinking water for 4 weeks (n=16 rats per group). On the day of the experiment the rats were anaesthetised and venous and arterial cannulae inserted. After a one hour rest equilibration period the rats were randomised to vehicle control (Haemaccell, Aventis) or VIP (10 pmol/kg/min) infusion (SEQ ID No. 1) for one hour at an infusion rate of 0.017 ml/min. The hearts were then harvested, myocardial VIP concentrations were measured and myocardial fibrosis quantitated.
The difference between the mean myocardial VIP concentrations after VIP or control infusion is a measure of VIP uptake by the heart.
(§1) VIP was measured by radioimmunoassay in known manner (see Davis R. E., Shelley S., Macdonald G. J. & Duggan K. A. (1992) The effects of a high sodium diet on the metabolism and secretion of vasoactive intestinal peptide in the rabbit. J. Physiol. 451:17-23. Duggan K. A., Ye V. Z. C., Jones D. M. Davis R. E. & Macdonald G. J. (1995) Effects of Endopeptidase 24.11 blockade on plasma and tissue concentrations of vasoactive intestinal peptide Clin. Sci. 89:267-271). […]

[1] = system: WKY rat fed a high salt diet; assay: VIP infusion in model of myocardial fibrosis: high salt diet; assay type: in vivo
Experimental: (§2) Three animal models of myocardial fibrosis were used (animals obtained from Australian Animal Resources, Perth, Western Australia, Australia) • i) WKY rat fed a high salt diet • ii) WKY rat fed a high salt diet and given L-NAME (ω-monomethyl-nitro-L-arginine, Sigma Chemical Co.) 10 mg/kg/day in the drinking water • iii) WKY rats with diabetes induced by streptozotocin injection 60 mg/kg
(§3) In each model the rats were randomised to VIP (H-[…]NH2, (SEQ ID No. 1) obtained from Auspep, Australia) or vehicle control (Haemaccel, Aventis) infusion for 4 weeks via Alzet minipump (n=6-8 each experimental group). The dose of VIP was 5 pmol/kg/min.
(§4) In models i) and ii) 14 week old WKY rats were commenced on high salt diet or high salt diet plus L-NAME. They underwent operative insertion of an Alzet minipump for infusion of VIP or vehicle. After 4 weeks the rats were anaesthetised and the hearts harvested. Myocardial VIP and myocardial fibrosis were quantitated.
(§5) Myocardial VIP concentrations and myocardial fibrosis were quantitated.
as §1

[2] = system: WKY rat fed a high salt diet and given L-NAME; assay: VIP infusion in model of myocardial fibrosis: high salt diet plus L-NAME; assay type: in vivo
Experimental: as §2, §3, §4, §5, §1

[3] = system: WKY rats with diabetes induced by streptozotocin injection; assay: VIP infusion in model of myocardial fibrosis: streptozotocin diabetes; assay type: in vivo, rat; settings: VIP 5 pmol/kg/min for 4 weeks after 8 weeks of diabetes; FIG. 6
Experimental: as §2, §3
In model iii) rats were injected with streptozotocin 60 mg/kg at 14 weeks of age. After 8 weeks the diabetic rats were randomised to VIP infusion (5 pmol/kg/min) (SEQ ID No. 1) or no treatment. VIP was administered as above. […]
as §5, §1

isolated rat heart = settings: heart perfused with VIP before ischaemia and reperfusion; cited from earlier work
[4] = system: isolated trabeculae from human hearts; settings: atria and ventricles of hearts from previously healthy individuals; cited from earlier work
normal heart = settings: cited from earlier work
[5] = system: WKY rats on high salt diet; assay: Effect of VIP fragments on myocardial fibrosis; assay type: in vivo, rat; settings: for degree of myocardial fibrosis: 5 pmol/kg/min for 4 weeks via Alzet minipump, compared with vehicle control, Masson Trichrome sections; for effectiveness on myocardial fibrosis relative to VIP: all peptides 5 pmol/kg/min for 4 weeks, FIGS. 8 to 10
Excerpt: To determine whether smaller VIP related peptides had any of the biological activities of the complete VIP molecule, particularly in reducing myocardial fibrosis, the degree of myocardial fibrosis after treatment with VIP(1-12) (SEQ ID No. 2) at 5 pmol/kg/min and VIP (6-28) (SEQ ID No. 3) at 5 pmol/kg/min for 4 weeks via Alzet minipump was compared with the complete VIP (5 pmol/kg/min) (SEQ ID No. 1) and vehicle control. The VIP fragments were purchased from Auspep (Melbourne, Australia).
Briefly, 14 week old WKY rats were commenced on high salt diet as described earlier. They underwent operative insertion of an Alzet minipump for infusion of VIP peptide or vehicle. After 4 weeks the rats were anaesthetised, the hearts harvested and myocardial fibrosis quantitated on Masson Trichrome sections using Image Pro Plus Version 5 (Cybernetics). […] FIGS. 8 to 10 show the results of these studies.

| Compound | myocardial fibrosis index (SHR and WKY rats) | difference between mean myocardial VIP concentrations after VIP or control infusion (VIP uptake by the heart) (WKY rats; VIP 10 pmol/kg/min for one hour, low, intermediate, high salt diet or high salt diet plus L-NAME, FIG. 1) | uptake of VIP by the heart from the plasma (WKY rats; acute infusion experiments in animal models with differing levels of fibrosis) | regression of existing myocardial fibrosis ([1]; VIP 5 pmol/kg/min 4 weeks, compared with untreated 14 week old rats, FIG. 4) | myocardial fibrosis index ([1]; VIP 5 pmol/kg/min for 4 weeks via Alzet minipump vs vehicle control, FIG. 2) | myocardial content of VIP ([1]; after four week intravenous infusion of VIP or vehicle control, FIG. 7A) | regression of existing myocardial fibrosis ([2]; VIP 5 pmol/kg/min 4 weeks, compared with untreated 14 week old rats, FIG. 5) | myocardial fibrosis index ([2]; VIP 5 pmol/kg/min for 4 weeks via Alzet minipump vs vehicle control, L-NAME 10 mg/kg/day, FIG. 3) | myocardial content of VIP ([2]; after four week intravenous infusion of VIP or vehicle control, FIG. 7B) | regression of existing myocardial fibrosis [3] | myocardial function (left ventricular functions, coronary flow, tissue injury) (isolated rat heart) | ionotropic effect [4] | uptake of injected VIP by the heart (normal heart) | degree of myocardial fibrosis [5] | effectiveness on myocardial fibrosis relative to VIP [5] |
| --- | --- | --- | --- | --- | --- | --- | --- | --- | --- | --- | --- | --- | --- | --- | --- |
| CC[C@H](C)[C@H](NC(=O)[C@H](CO)NC(=O)[C@H](CC(N)=O)NC(=O)[C@H](CC(C)C)NC(=O)[C@H](Cc1ccc(O)cc1)NC(=O)[C@H](CCCCN)NC(=O)[C@H](CCCCN)NC(=O)[C@@H](NC(=O)[C@H](C)NC(=O)[C@H](CCSC)NC(=O)[C@H](CCC(N)=O)NC(=O)[C@H](CCCCN)NC(=O)[C@H](CCCNC(=N)N)NC(=O)[C@H](CC(C)C)NC(=O)[C@H](CCCNC(=N)N)NC(=O)[C@@H](NC(=O)[C@H](Cc1ccc(O)cc1)NC(=O)[C@H](CC(N)=O)NC(=O)[C@H](CC(=O)O)NC(=O)[C@@H](NC(=O)[C@H](Cc1ccccc1)NC(=O)[C@@H](NC(=O)[C@H](C)NC(=O)[C@H](CC(=O)O)NC(=O)[C@H](CO)NC(=O)[C@@H](N)Cc1c[nH]cn1)C(C)C)[C@@H](C)O)[C@@H](C)O)C(C)C)C(=O)N[C@@H](CC(C)C)C(=O)N[C@@H](CC(N)=O)C(N)=O [VIP] | significantly lower | As fibrosis worsens the amount of VIP taken up by the heart increases; also recorded: increase as the degree of fibrosis increased | more avid with increasing degrees of fibrosis; also recorded: the higher the level of fibrosis, the greater the uptake of VIP by the heart | regression of myocardial fibrosis | significantly lower | clear association between the degree of fibrosis and uptake of exogenous VIP | regression of myocardial fibrosis | significantly lower | clear association between the degree of fibrosis and uptake of exogenous VIP | regression of myocardial fibrosis | significant improvement of myocardial function | direct positive ionotropic effect | not taken up by the normal heart | – | – |
| VIP(1-12): active fragment of VIP, residues 1-12, purchased from Auspep (HSDAVFTDNYTR; listed as Homo sapiens) | – | – | – | – | – | – | – | – | – | – | – | – | – | decreased the degree of myocardial fibrosis | approximately ⅓ |
| VIP(6-28): active fragment of VIP, residues 6-28, purchased from Auspep (FTDNYTRLRKQMAVKKYLNSILN; listed as Homo sapiens) | – | – | – | – | – | – | – | – | – | – | – | – | – | decreased the degree of myocardial fibrosis | as effective as VIP |
